This data set is described as follows: Detection of RONS in plasma-treated polymer solutions (strips, AR/HRP reagent, Griess reagent). It is filed as physicochemical. As to conditions: 200 μL. The text has this: In the examples presented here, two kinds of atmospheric plasma jet were used: a commercially available cold atmospheric plasma jet kINPen IND (NEOPLAS Tools, Germany), operating with argon and an atmospheric pressure plasma jet (APPJ) using He as plasma gas in a jet design based on a single electrode. Gas flow was regulated between 1 and 2.5 L/min for kINPen and between 1 and 5 L/min for APPJ by using Ar and He Bronkhorst Mass View flow controllers (BRONKHORST, Netherlands), respectively. All plasma treatments of polymeric solutions for RONS quantification were performed on 200 μL of the polymeric solution in 96-well plates, with a distance between the nozzle and the sample surface between 10 and 20 mm. These plasma treatments were done with ungrounded samples. Both grounded and ungrounded samples can be used to obtain the compositions of the present invention, since the skilled person can set the plasma treatment conditions to obtain the desired RONS concentrations.
Determination of NO2^− concentration in plasma-treated polymer solutions was performed using Griess reagent. The Griess reagent used was obtained by dissolving 1% wt/v of sulphanilamide, 0.1% wt/v of N-(1-naphthyl)ethylenediamine dihydrochloride (NEED) and 5% w/v of phosphoric acid in de-ionized water. 200 μL of Griess reagent were added on 200 μL of sample in 96 well-plates. The plates were incubated for 10 min at room temperature protected from the light. The absorbance was measured at λabs=540 nm using a Synergy HTX Hybrid Multi Mode Microplate Reader (BioTek Instruments, Inc., USA). The [NO2^−] in each sample was determined from the absorbance values by using a calibration curve made from NaNO2 dilutions in the corresponding polymer solutions.
The concentration of hydrogen peroxide was determined by reaction of H2O2 with Amplex Red in presence of HRP enzyme that leads to the creation of resorufin, a fluorescent product. Amplex Red/HRP reagent consists in 100 μM of Amplex Red and 0.25 U/mL HRP in DI water. Since the higher concentration of H2O2 able to be processed properly by this reagent is around 10 μM of H2O2, plasma-treated polymer solutions were diluted 200 times previously to the addition of the reagent. In this case, for hydrogen peroxide detection, 50 μL of the Amplex Red/HRP reagent was added to 200 μL of the 200×-diluted polymer solution sample in a 96-well plate and incubated for 30 min at 37° C. Subsequent fluorescence measurements were performed by means of a Synergy HTX Hybrid Multi Mode Microplate Reader (BioTek Instruments, Inc., USA), with fluorescence filters centred at λex=560/20 nm and λem=590/20 nm as excitation and emission wavelengths, respectively. Concentrations of H2O2 in polymer solution generated by plasma treatment were obtained from the fluorescence values using a calibration curve made from 30% hydrogen peroxide solution in the corresponding polymer solutions.
For certain polymer solutions, interferences may be found between the solution and the reactants, invalidating the measure. In such cases, another method was used to determine the concentration of H2O2, […] in the polymer solutions after plasma treatment: QUANTOFIX® test strips, which were analyzed by means of a reflexion photometer (QUANTOFIX® Relax, of Macherey Nagel). The strips consist of plastic strips to which test paper has been sealed. Nitrite strips are also based in Griess reagent. Peroxide strips also use a redox reaction. The range of detection of the test strips used for H2O2, NO3^− and NO2^− were 1-100 mg/L, 10-500 mg/L and 1-80 mg/L, respectively. The plasma-treated polymer solutions were diluted, if necessary, to be within the measuring range.

The values that follow come from patent publication US12691145B2, “Plasma-treated hydrogel compositions and uses thereof” (UNIVERSITAT POLITÉCNICA DE CATALUNYA, priority 2020, dated 2026).

Regarding Water, the H2O2 by setting is: (APPJ, treat. time 180 s) 9.2 mg/L; (APPJ, treat. time 300 s) 16.4 mg/L; (kINPen, treat. time 180 s) 10.3 mg/L; (kINPen, treat. time 300 s) 29.3 mg/L. The “NO2^−” value was found to be 1.7 mg/L (APPJ, treat. time 180 s); 2.7 mg/L (APPJ, treat. time 300 s); 2.6 mg/L (kINPen, treat. time 180 s); 2.7 mg/L (kINPen, treat. time 300 s).
